Tested on: IL-1β production in PMA-differentiated THP-1 cells
Experiment: IL-1β production in PMA-differentiated THP-1 cells stimulated with gramicidin (hTHP-1 assay containing 2% fetal bovine serum)
Format: cell-based, human
Details: Homo sapiens, THP-1, Table B1; 2% fetal bovine serum; class symbols; read-out: hTHP-1 IC50 (Average IC50 of compounds in hTHP-1 assay)
Method in brief: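 IL-1β release was read by HTRF on supernatants of 50,000 PMA-primed (20 ng/ml, 16-18 h) THP-1 cells/well in 2% FBS medium. Cells saw compound for 1 h (11-point titration from 100 μM, 0.37% DMSO) before a 2 h gramicidin (5 μM) challenge.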

Compound | IC50 [nM]
CNCc1ccc(S(N)(=O)=NC(=O)Cc2c(C(C)C)cc(C(F)F)nc2C(C)C)cc1 (stereo not shown) [Example 254, N-(amino(4-((methylamino)methyl)phenyl)(oxo)-λ^6-sulfaneylidene)-2-(6-(difluoromethyl)-2,4-diisopropylpyridin-3-yl)acetamide] | 5000 to 30000
CC(C)c1cc(C#N)nc(C(C)C)c1CC(=O)NS(=N)(=O)c1sc(C(C)(C)O)nc1CO (stereo not shown) [Example 237, 2-(6-cyano-2,4-diisopropylpyridin-3-yl)-N-(4-(hydroxymethyl)-2-(2-hydroxypropan-2-yl)thiazole-5-sulfonimidoyl)acetamide] | 5000 to 30000

Same assay, conditions: Table B1; 2% fetal bovine serum; class symbols; read-out: hTHP-1 IC50 (Average IC50 of compounds in hTHP-1 assay)

Compound | IC50 [nM]
CC(C)c1c(F)c(C#N)cc(C2CC2)c1CC(=O)N=S(N)(=O)c1sc(C(C)(C)O)cc1F (stereo not shown) [Example 19, 2-(4-cyano-6-cyclopropyl-3-fluoro-2-isopropylphenyl)-N-(3-fluoro-5-(2-hydroxypropan-2-yl)thiophen-2-ylsulfonimidoyl)acetamide] | 8 to 40
CC(C)c1cc(C#N)c(F)c(C(C)C)c1CC(=O)N=S(N)(=O)c1cnc(C(C)(O)CO)s1 (single isomer, unassigned) [Example 336, (R, R) or (S, R)-N-(amino(2-(1,2-dihydroxypropan-2-yl)thiazol-5-yl)(oxo)-λ^6-sulfaneylidene)-2-(4-cyano-3-fluoro-2,6-diisopropylphenyl) acetamide] | 200 to 1000
CCc1cc2c(c(C(C)C)c1CC(=O)N=S(N)(=O)c1sc(C(C)(C)O)cc1F)COC2 (single isomer, unassigned) [Example 297, (R) or (S)-N-(amino (3-fluoro-5-(2-hydroxypropan-2-yl)thiophen-2-yl)(oxo)-λ^6-sulfaneylidene)-2-(6-ethyl-4-isopropyl-1,3-dihydroisobenzofuran-5-yl)acetamide] | 1000 to 5000
CC(C)c1cc(C#N)cc(C2CC2)c1CC(=O)N=S(N)(=O)c1sc(C(C)(C)O)nc1CO (single isomer, unassigned) [Example 70, (S)- or (R)-(4-cyano-2-cyclopropyl-6-isopropylphenyl)-N-(4-(hydroxymethyl)-2-(2-hydroxypropan-2-yl)thiazol-5-ylsulfonimidoyl)acetamide] | 200 to 1000
CC(C)c1ccc(F)c(C(C)C)c1CC(=O)N=S(N)(=O)c1ccc(C(C)(C)O)s1 (single isomer, unassigned) [Example 176, (R) or (S)-N-(amino(5-(2-hydroxypropan-2-yl)thiophen-2-yl)(oxo)-λ^6-sulfaneylidene)-2-(3-fluoro-2,6-diisopropylphenyl) acetamide] | 200 to 1000
CC(C)c1cc(C#N)cc(C2CC2)c1CC(=O)N=S(N)(=O)c1sc(C(C)(C)O)nc1CO (single isomer, unassigned) [Example 71, (R)- or (S)-2-(4-cyano-2-cyclopropyl-6-isopropylphenyl)-N-(4-(hydroxymethyi)-2-(2-hydroxypropan-2-yl)thiazol-5-ylsulfonimidoyl)acetamide] | 5000 to 30000

Same assay, conditions: Table B2; 2% fetal bovine serum; class symbols; read-out: hTHP-1 IC50 (Average IC50 of compounds in hTHP-1 assay)

Compound | IC50 [nM]
CC(C)c1cc(C#N)cc(C(C)C)c1CC(=O)N=S(N)(=O)c1sc(C(C)(C)O)nc1CCO (single isomer, unassigned) [Example 383, (R) or (S)-N-(amino(4-(2-hydroxyethyl)-2-(2-hydroxypropan-2-yl)thiazol-5-yl)(oxo)-λ^6-sulfaneylidene)-2-(4-cyano-2,6-diisopropylphenyl)acetamide] | 200 to 1000
CC(C)c1cc(C#N)c(F)c(C(C)C)c1CC(=O)N=S(N)(=O)c1sc(C(C)(C)O)nc1CO (racemic) [Example 353, (S) and (R)—N-(amino(4-(hydroxymethyl)-2-(2-hydroxypropan-2-yl)thiazol-5-yl)(oxo)-λ^6-sulfaneylidene)-2-(4-cyano-3-fluoro-2,6-diisopropylphenyl)acetamide] | 5000 to 30000

From patent publication US20230059136A1, “THE COMPOUNDS AND COMPOSITIONS FOR TREATING CONDITIONS ASSOCIATED WITH NLRP ACTIVITY” (Novartis AG, priority 2018, published 2023)
